# Results from the SangsterLogP compilation.
# Assay: method code SF-AS, from DOI: 10.1021/jm00114a020, PMID: 1920359
# Details: pH 7.4
row,logD,SMILES
1,-0.14,COCC(=O)OCCCS(=O)(=O)c1ccc(S(N)(=O)=O)s1
2,-0.48,Nc1cc(S(N)(=O)=O)ccc1S(=O)(=O)CCCO
3,-0.26,NS(=O)(=O)c1ccc(S(=O)(=O)CCCCO)cc1
4,1.04,NS(=O)(=O)c1ccc(CCCCCO)cc1
5,1.4,CC(C)(O)CCSc1ccc(S(N)(=O)=O)cc1
6,0.96,NS(=O)(=O)c1ccc(SCCCO)c([N+](=O)[O-])c1
7,0.99,NS(=O)(=O)c1ccc(SCCCO)c(F)c1
8,1.86,CC(=O)OCCCCCc1ccc(S(N)(=O)=O)cc1
9,-0.05,NS(=O)(=O)c1ccc(S(=O)(=O)CCCO)c([N+](=O)[O-])c1
10,0.72,NS(=O)(=O)c1ccc(SCCO)c(F)c1
11,-0.09,CC(C)(O)CCS(=O)(=O)c1ccc(S(N)(=O)=O)cc1
12,0.38,NS(=O)(=O)c1ccc(SCCO)c([N+](=O)[O-])c1
13,0.98,CC(=O)OCCCc1ccc(S(N)(=O)=O)cc1
14,0.36,NS(=O)(=O)c1ccc(SCCO)cc1
15,-0.64,NS(=O)(=O)c1ccc(S(=O)(=O)CCCO)cc1
16,-0.34,NS(=O)(=O)c1ccc(S(=O)(=O)CCCCO)s1
17,1.04,NS(=O)(=O)c1ccc(SCCCCCO)cc1
18,1.28,NS(=O)(=O)c1ccc(SCCCCO)c(F)c1

row,logD,SMILES
1,-0.41,NS(=O)(=O)c1ccc(S(=O)(=O)CCCO)c(F)c1
2,0.57,NS(=O)(=O)c1ccc(CCCCO)cc1
3,-0.36,NS(=O)(=O)c1ccc(S(=O)(=O)CCCO)s1
4,0.11,CC(=O)OCCS(=O)(=O)c1ccc(S(N)(=O)=O)s1
5,-0.6,NS(=O)(=O)c1ccc(S(=O)(=O)CCO)c(F)c1
6,0.38,NS(=O)(=O)c1ccc(SCCO)s1
7,1.59,NS(=O)(=O)c1ccc(SCCCO)c(Cl)c1
8,-0.3,COC(=O)c1cc(S(N)(=O)=O)ccc1S(=O)(=O)CCCO
9,0.8,NS(=O)(=O)c1ccc(SCCCO)cc1
10,0.93,NS(=O)(=O)c1ccc(SCCCCO)cc1
11,0.17,CC(=O)OCCCS(=O)(=O)c1ccc(S(N)(=O)=O)s1
12,-0.54,NS(=O)(=O)c1ccc(S(=O)(=O)CCO)s1
13,0.17,NS(=O)(=O)c1ccc(CCCO)cc1
14,0.95,NS(=O)(=O)c1ccc(SCCCCO)s1
15,0.85,NS(=O)(=O)c1ccc(SCCCO)s1
16,-0.6,Nc1cc(S(N)(=O)=O)ccc1S(=O)(=O)CCO
17,-0.85,NS(=O)(=O)c1ccc(S(=O)(=O)CCO)cc1
18,-0.47,COC(=O)c1cc(S(N)(=O)=O)ccc1S(=O)(=O)CCO
